This passage reports GHS category results from the CATMoS acute toxicity set (Mansouri et al. 2021).

A short description of the data set: GHS categories as the set defines them, by LD50: 1 up to 5, 2 up to 50, 3 up to 300, 4 up to 2000, 5 above 2000 mg/kg. The following applies: rat; in vivo; po.

Molecule `O=C(CSCCO)NCCCOc1cccc(CN2CCCCC2)c1` returned a GHS category of 5.
Under `COc1cc(OC)nc(NC(=O)NS(=O)(=O)Cc2ccccc2C(=O)O)n1` stands 5; under `CCC(=O)NP(=O)(OC)SC` (stereo unspecified), 4; under `O=C1CCc2c(OCC(O)CN3CCC(Cc4ccccc4)CC3)cccc2N1Cc1ccccc1` (stereo unspecified), 4.
Consider `CC1CC(OC(=O)C(C)Oc2ccc(Cl)cc2)CC(C)(C)C1` (stereo unspecified), for which the GHS category is given as 5.
Molecule `CCCCCCCC(=O)N(CCO)CCO` displayed a GHS category of 5.
Under `Cn1c(=O)oc2cc(C(=O)c3ccc(Cl)cc3)ccc21` stands 5; under `CCCCCCBr`, 5; under `CCCCc1ccc2[nH]c(NC(=O)OC)nc2c1`, 2.
Then `CN[C@@H]1[C@H](O[C@H]2[C@H](O[C@@H]3[C@H](O)[C@@H](O)[C@@H](OC(N)=O)[C@@H](O)[C@@H]3NC(=N)N)O[C@@H](C)[C@]2(O)CO)O[C@@H](CO)[C@H](O)[C@H]1O`, with 5; and `CO[Si](CCCCl)(OC)OC`, with 5; and `Cc1nc2cc(Cl)ccc2o1`, with 4.
`O=C(CCl)Nc1nc2cc(Cl)ccc2o1` showed a GHS category of 4.
Take `CCCCCCCC/C=C\CCCCCCCC(=O)NCC(C)O` (stereo unspecified): the GHS category is on record as 5.
Under `CC12CCC(=O)C=C1CCC1C3CCC4(CCC(=O)O4)C3CCC12C` (stereo unspecified) stands 5; under `NC(=O)c1cc[n+](CC2=C(C(=O)O)N3C(=O)[C@@H](NC(=O)[C@H](c4ccccc4)S(=O)(=O)[O-])[C@@H]3SC2)cc1`, 5; under `C[N@+]1(CCNP(=S)(NCC[N@@+]2(C)Cc3c(ccc4c3OCO4)[C@@H]3[C@H]2c2cc4c(cc2C[C@@H]3O)OCO4)NCC[N@@+]2(C)Cc3c(ccc4c3OCO4)[C@@H]3[C@H]2c2cc4c(cc2C[C@@H]3O)OCO4)Cc2c(ccc3c2OCO3)[C@@H]2[C@H]1c1cc3c(cc1C[C@@H]2O)OCO3`, 4.
Then `Cn1nnnc1SCCCSc1ccncc1`, with 4.
Then `OC1(c2ccccc2)c2c(Cl)cccc2C2=NCCN21` (stereo unspecified), with 4; and `CC(=O)Oc1ccccc1C(=O)Oc1cccc(CO[N+](=O)[O-])c1`, with 5; and `C[C@@H]1C[C@H]2[C@@H]3CCC4=CC(=O)C=C[C@]4(C)[C@@]3(F)[C@@H](O)C[C@]2(C)[C@@]1(O)C(=O)CO`, with 5.
Turning to `CO[Si](C)(OC)OC`, the GHS category turned out to be 5.
Then `N#Cc1ccc(NC(=O)Oc2ccccc2)cc1`, with 5; and `Cn1cc(-c2ccccc2)c(=O)c(-c2cccc(C(F)(F)F)c2)c1`, with 5; and `CCCc1c(Cc2ccc(-c3ccccc3-c3nn[nH]n3)cc2)c(=O)nc2nc(C)[nH]n12`, with 4.
Then `COc1ccc(C[C@](C)(NC(N)=O)C(=O)O)cc1OC`, with 5; and `c1ccc(C2=NN(c3ccccc3)C(c3ccccc3)C2)cc1` (stereo unspecified), with 5.
Under `CCC=CCC=CCC=CCC=CCCCCC(=O)OCC` stands 5.
The molecule `Cc1cccc(N(C)C(=S)Oc2ccc3c(c2)C2CCC3C2)c1` (stereo unspecified) had a GHS category of 4.
Under `CCC(=O)OC(C)(C)Cc1ccccc1` stands 5; under `CC(=O)N1c2ccccc2SC1c1cc([N+](=O)[O-])ccc1OCCCN(C)C1CCCCC1` (stereo unspecified), 5.
Then `CCn1cc(C(=O)O)c(=O)c2cnc(N3CCCC3)nc21`, with 5; and `Cc1ccc(C(=O)c2ccc(CC(=O)NCC(=O)Nc3cccc(Cl)c3)n2C)cc1`, with 4.
Under `c1ccc2oc(C3(Cn4ccnc4)OCCCO3)cc2c1` stands 4; under `Cc1nn(-c2ccc3cc(-c4ccccc4)c(=O)oc3c2)nc1-c1ccccc1`, 5.
`COc1ccc(-c2ccccc2)cc1NNC(=O)OC(C)C` had a GHS category of 5.
Under `CCNC(=O)NCc1cccc(Cl)c1` stands 5; under `Nc1ccc(-c2ccc(N)c3c2C(=O)c2ccccc2C3=O)c2c1C(=O)c1ccccc1C2=O`, 5; under `O=[N+]([O-])c1cc2c(Nc3ccc(F)c(Cl)c3)ncnc2cc1S(=O)(=O)c1ccccc1`, 5.
Under `CCCCOC(=O)c1ccc(-n2nc(OCCN(C)C)c3ccccc32)cc1` stands 4.
`C=C1C2CCC(C2)C1(C)C` (stereo unspecified) had a GHS category of 5.
Under `COC(=O)c1ccc(C#N)cc1[N+](=O)[O-]` stands 5; under `Nc1ccc(C(=O)NCCN2CCN(c3ccccn3)CC2)cc1`, 5; under `COCCOCOCCOC`, 5.
Under `CCCCCBr` stands 5.
Under `CC[C@H](c1ccc(O)cc1)[C@@H](CC)c1ccc(O)cc1` stands 5; under `O=C=Nc1ccc(Br)cc1`, 5; under `CCCCCCCCCCCCCCCCCC(=O)OCC(COC(=O)CCCCCCCCCCCCCCCCC)OC(=O)CCCCCCCCCCCCCCCCC`, 5.
The molecule `O=S(=O)(NCl)c1ccccc1` returned a GHS category of 4.
Molecule `O=C(OOC(=O)c1ccc(Cl)cc1Cl)c1ccc(Cl)cc1Cl` yielded a GHS category of 5.
Then `O=C1/C(=C2\Nc3ccccc3C2=O)Nc2ccccc21`, with 5; and `c1ccc(OCCOc2ccccc2)cc1`, with 5.
Under `CC(=O)O[C@@]12CCC[C@@](C)(CC[C@@H]3[C@@H]1CC3(C)C)C2` stands 5.
Then `Nc1ccc2cc(S(=O)(=O)O)c(/N=N/c3ccc(-c4ccc(/N=N/c5ccc(O)c(C(=O)O)c5)cc4)cc3)c(O)c2c1`, with 5.
Consider `FC(F)(F)OC(Cl)C(F)(Cl)Cl` (stereo unspecified), for which the GHS category amounted to 5.
Molecule `CC(c1ccc2c(c1)Cc1ccccc1-2)S(=O)CC(=O)O` (stereo unspecified) showed a GHS category of 4.
Under `CCC(C)n1ncn(-c2ccc(N3CCN(c4ccc(OC[C@H]5CO[C@](Cn6cncn6)(c6ccc(Cl)cc6Cl)O5)cc4)CC3)cc2)c1=O` (stereo partly specified) stands 4.
Regarding `CC(=O)C[N+]1(CC(N)=O)C(=O)Sc2ccc(Cl)cc21` (stereo unspecified), the GHS category was determined as 5.
`CC1CC(OC(=O)COc2cccc(C(F)(F)F)c2)CC(C)(C)C1` (stereo unspecified) returned a GHS category of 5.
Under `CCOC(=O)c1cn(C2CC2)c2cc(F)c(F)cc2c1=O` stands 5; under `CCCc1c(Cc2ccc(-c3sccc3-c3nn[nH]n3)cc2)c(=O)nc2nc(C)[nH]n12`, 4.
Then `CCOC[C@@H]1[C@@H](O)[C@H](O[C@H]2[C@H](O)[C@@H](OCC)[C@H](O)O[C@@H]2CO)O[C@H](COCC)[C@H]1O`, with 5; and `FC1(F)COC1(F)F`, with 4; and `COc1ccc(C(=O)OC2=C(C(=O)Nc3ccccn3)N(C)S(=O)(=O)c3ccsc32)cc1`, with 2.
For the molecule `COC(=O)CC(C(C)=O)C(=O)OC` (stereo unspecified), the GHS category is 5.
Then `CC(O)C(O)C(=O)C(O)C(O)Oc1cccc2c1C(=O)c1c(O)cc(C(=O)O)cc1C2C1c2cc(C(=O)O)cc(O)c2C(=O)c2c(OC(O)C(O)C(=O)C(O)C(C)O)cccc21` (stereo unspecified), with 5; and `C=COC(=O)C1=C(C)N[C@@](C)(c2ccc(N3CCN(C(c4ccccc4)c4ccccc4)CC3)cc2)C(C(=O)OC)C1c1cccc([N+](=O)[O-])c1` (stereo partly specified), with 4; and `C=CC(C)(CCC=C(C)C)OC(=O)C(C)C` (stereo unspecified), with 5.
Then `CN(SN(C)C(=O)Oc1ccc(C(C)(C)c2ccc(OC(=O)N(C)SN(C)C(=O)ON=C3CSCCS3)cc2)cc1)C(=O)ON=C1CSCCS1`, with 4; and `CC#Cc1cc(C)nc(Nc2ccccc2)n1`, with 5; and `CNC(=O)C(=NNc1ccccc1Cl)C(C)=O`, with 5.
Under `CC1(C)S[C@@H]2[C@H](NC(=O)C(c3ccccc3)S(=O)(=O)O)C(=O)N2[C@H]1C(=O)O` (stereo partly specified) stands 5.
`C[C@@H]1CCN(C(=O)[C@H](CCCNC(=N)N)NS(=O)(=O)c2cccc3c2NC[C@H](C)C3)[C@@H](C(=O)O)C1` had a GHS category of 5.
Under `C#C[C@]1(O)CC[C@H]2[C@@H]3CCC4=CC(=O)CC[C@]4(C)[C@H]3CC[C@@]21C` stands 5; under `CC(C)OC(=O)CCCCCCCCC(=O)OC(C)C`, 5.
Then `CCCCCCCCCC=CC=O`, with 5; and `C[N+](C)(CCO)CC(O)C[N+](C)(C)CCO`, with 4; and `O=C(Cl)CCCCCl`, with 4.
Take `COC(=O)C(C)O` (stereo unspecified): the GHS category amounted to 5.
Then `CC(C)OC(=O)C(C)(C)Br`, with 5.
Then `O=S(=O)(O)c1ccc(/N=N/c2cc(CO)c(O)c(/N=N/c3ccc(S(=O)(=O)O)c4ccccc34)c2O)c2ccccc12`, with 5; and `Cn1nnnc1SCCCC(=O)NC1CCCCC1`, with 4; and `CN1c2c(oc(=NC3CCCCC3)n(C3CCCCC3)c2=O)-c2sc(Cl)cc2S1(=O)=O`, with 2.
Under `COC(=O)c1ccc2c(C3CCCC3)cn(C)c2c1` stands 5; under `c1ccc(-c2cc3ccccc3[nH]2)cc1`, 5; under `FC(F)(F)N1C(F)(F)C(F)(F)OC(F)(F)C1(F)F`, 5.
In the case of `COc1nn(C(=O)NS(=O)(=O)c2ccccc2OC(F)(F)F)c(=O)n1C`, the GHS category is listed as 5.
Under `Nc1nc2cc([N+](=O)[O-])ccc2o1` stands 4; under `O=C(O)c1[nH]n(-c2ccc(S(=O)(=O)O)cc2)c(=O)c1/N=N/c1ccc(S(=O)(=O)O)cc1`, 5.
Then `Clc1ccc(CNC2=NCCS2)cc1`, with 3; and `Cc1cccc2ncc(C(=O)Nc3ccc(F)cc3)c(=O)n12`, with 3; and `CCC(=O)N[C@H]1CCc2nc(N)sc2C1`, with 5.
`Cn1cc(C(=O)O)c(C(F)F)n1`: the GHS category came out at 5.
Under `CCCCCCCCCC(=O)Nc1ccc(Cc2ccccn2)c([N+](=O)[O-])c1` stands 3; under `CCCCn1c(C)c(CC(=O)O)c2c1CC(C)(C)CC2=O`, 5; under `NC(=O)Oc1ccccc1C(=O)Oc1ccc([N+](=O)[O-])cc1`, 5.
